# Test results published in US20170136031A1, “PLATINUM COMPLEXES AS ANTICANCER AGENTS” (KING FAHD UNIVERSITY OF PETROLEUM AND MINERALS, priority 2014, published 2017).
# Legend:
# Format in all cases: cell-based
# [1] = test system: A549 (human lung carcinoma) cell line; experiment: In vitro cytotoxicity against A549 cell line; conditions: from curves of complex concentration vs percentage viability
# [2] = test system: HCT15 (human colon adenocarcinoma) cell line; experiment: In vitro cytotoxicity against HCT15 cell line; conditions: from curves of complex concentration vs percentage viability
# [3] = test system: MCF7 (human breast cancer) cell line; experiment: In vitro cytotoxicity against MCF7 cell line; conditions: from curves of complex concentration vs percentage viability
# [4] = test system: HeLa (human cervical cancer) cell line; experiment: In vitro cytotoxicity against HeLa cell line; conditions: read-out: IC50 values against HeLa cell line (unit inferred)
compound,measurement,setting,value
"N.N.[Cl][Pt][Cl] [Cisplatin, cisplatin]",IC50,[1],41.6 µM
same,IC50,[2],29.5 µM
same,IC50,[3],22.4 µM
same,IC50,[4],19.4 µM
